Measured values published in ChEMBL document CHEMBL4651402, “Screening of ~5500 FDA-approved drugs and clinical candidates for anti-SARS-CoV-2 activity” (2021).
Numbered stars: 1 amine (or outer) side, 2 acyl side, 3 side chain; on linkers, the order of the positions; unused ones are H or OH. Bridge positions count the residues as written; N and C are the ends. Square brackets hold non-standard residues; d marks the D form. Peptide text beside a SMILES is read from it. I, II: the chains in the order shown. Actinocin(1to9) = Cc1c2oc3c(C)ccc(C(=O)[*:2])c3nc-2c(C(=O)[*:1])c(N)c1=O; NMeV = CN[C@H](C(=O)O)C(C)C; Sar = CNCC(=O)O

Tested on: SARS-CoV-2
Assay: microbe, parasite or virus in culture
Settings: Severe acute respiratory syndrome coronavirus 2, Vero C1008, 48 h

SMILES: O=C(NCNC(=O)NC1C(=O)NC(=O)N1CO)NC1C(=O)NC(=O)N1CO (centres undefined)
- IC50: > 20 µM
- IC50 (read-out: pIC50 (converted)): > 20 µM

SMILES: CCC12CCN(CC3CCC3)[C@@H](Cc3ccc(O)cc31)C2(C)C
- IC50: > 20 µM
- IC50 (read-out: pIC50 (converted)): > 20 µM

SMILES: C=C1CC[C@H](O)C/C1=C/C=C1\CCCC2(C)C1CCC2C(C)/C=C/C(C)C(C)C (some centres undefined)
- IC50: > 20 µM
- IC50 (read-out: pIC50 (converted)): > 20 µM

SMILES: CN/C(=N\CCSCc1nc[nH]c1C)NC#N [CIMETIDINE]
- IC50: > 20 µM
- IC50 (read-out: pIC50 (converted)): > 20 µM

SMILES: c1ccc2c(c1)CCCc1cc(NCCN3CCOCC3)nnc1-2
- IC50: > 20 µM
- IC50 (read-out: pIC50 (converted)): > 20 µM

SMILES: CN1CCN(C2=Nc3cc(F)ccc3Cc3ccccc32)CC1 [FLUPERLAPINE]
- IC50: > 20 µM
- IC50 (read-out: pIC50 (converted)): > 20 µM

SMILES: O=C(O)CNC(=O)c1nc(Cl)c2ccccc2c1O
- IC50: > 20 µM
- IC50 (read-out: pIC50 (converted)): > 20 µM

SMILES: O=C(O)C=Cc1ccc(O)c(O)c1
- IC50: > 20 µM
- IC50 (read-out: pIC50 (converted)): > 20 µM

SMILES: CC(C)CC(=O)N[C@H](C(=O)N[C@H](C(=O)N[C@@H](CC(C)C)[C@@H](O)CC(=O)N[C@@H](C)C(=O)N[C@@H](CC(C)C)[C@@H](O)CC(=O)O)C(C)C)C(C)C [PEPSTATIN]
- IC50: > 20 µM
- IC50 (read-out: pIC50 (converted)): > 20 µM

SMILES: OC[C@H]1O[C@@H](Oc2ccc(O)cc2)[C@H](O)[C@@H](O)[C@@H]1O [ARBUTIN]
- IC50: > 20 µM
- IC50 (read-out: pIC50 (converted)): > 20 µM

SMILES: O=C(NCCN1CCOCC1)c1ccc(Cl)cc1 [MOCLOBEMIDE]
- IC50: > 20 µM
- IC50 (read-out: pIC50 (converted)): > 20 µM

SMILES: CCC(=O)O [PROPIONIC ACID]
- IC50: > 20 µM
- IC50 (read-out: pIC50 (converted)): > 20 µM

SMILES: O=C(O)C1(c2ccc3c(c2)OC[C@H](Cc2ccc(-c4ccccc4)cc2)[C@H]3O)CCCC1
- IC50: > 20 µM
- IC50 (read-out: pIC50 (converted)): > 20 µM

SMILES: NS(=O)(=O)c1ccc(N2CCCCS2(=O)=O)cc1
- IC50: > 20 µM
- IC50 (read-out: pIC50 (converted)): > 20 µM

SMILES: CC(C)Nc1ncccn1 [ISAXONINE]
- IC50: > 20 µM
- IC50 (read-out: pIC50 (converted)): > 20 µM

SMILES: CCN(CC)CCOC(=O)C(c1ccccc1)c1ccccc1 [ADIPHENINE]
- IC50: > 20 µM
- IC50 (read-out: pIC50 (converted)): > 20 µM

SMILES: COCC(O)Cn1ccnc1[N+](=O)[O-] (centres undefined) [MISONIDAZOLE]
- IC50: > 20 µM
- IC50 (read-out: pIC50 (converted)): > 20 µM

SMILES: CC1(C)OC(=O)NC1=O [DIMETHADIONE]
- IC50: > 20 µM
- IC50 (read-out: pIC50 (converted)): > 20 µM

SMILES: COc1cc(NCCCC(C)N)c2ncccc2c1 (centres undefined) [QUINOCIDE]
- IC50: > 20 µM
- IC50 (read-out: pIC50 (converted)): > 20 µM

SMILES: O=c1oc2ccccc2c(O)c1Cc1c(O)c2ccccc2oc1=O [DICUMAROL]
- IC50: > 20 µM
- IC50 (read-out: pIC50 (converted)): > 20 µM

SMILES: O=c1cc(-c2ccccc2)oc2ccccc12 [FLAVONE]
- IC50: > 20 µM
- IC50 (read-out: pIC50 (converted)): > 20 µM

SMILES: CCOC(=O)Nc1ccc(SC[C@H]2CO[C@](Cn3ccnc3)(c3ccc(Cl)cc3Cl)O2)cc1
- IC50: > 20 µM
- IC50 (read-out: pIC50 (converted)): > 20 µM

SMILES: Cc1cccc(N(C)C(=S)Oc2ccc3c(c2)C2CCC3C2)c1 (centres undefined) [TOLCICLATE]
- IC50: > 20 µM
- IC50 (read-out: pIC50 (converted)): > 20 µM

SMILES: CC(C)N(CCC(C(N)=O)(c1ccccc1)c1ccccc1)C(C)C
- IC50: > 20 µM
- IC50 (read-out: pIC50 (converted)): > 20 µM

SMILES: Cc1ccc([C@@H]2O[C@H](CO)[C@@H](O)[C@H](O)[C@H]2O)cc1Cc1ccc(-c2ccc(F)cc2)s1 [CANAGLIFLOZIN ANHYDROUS]
- IC50: > 20 µM
- IC50 (read-out: pIC50 (converted)): > 20 µM

SMILES: CC(=O)OCC(=O)[C@@]1(O)CCC2C3CCC4=CC(=O)CCC4(C)C3C(O)CC21C (some centres undefined)
- IC50: > 20 µM
- IC50 (read-out: pIC50 (converted)): > 20 µM

SMILES: CN1CCN2c3ccccc3Cc3ccccc3C2C1 (centres undefined) [MIANSERIN]
- IC50: > 20 µM
- IC50 (read-out: pIC50 (converted)): > 20 µM

SMILES: Nc1ncn([C@@H]2O[C@H](CO)[C@@H](O)[C@H]2O)c(=O)n1 [AZACITIDINE]
- IC50: > 20 µM
- IC50 (read-out: pIC50 (converted)): > 20 µM

SMILES: CC(N)Cc1ccc(O)cc1 (centres undefined) [HYDROXYAMPHETAMINE]
- IC50: > 20 µM
- IC50 (read-out: pIC50 (converted)): > 20 µM

SMILES: COc1c2c(cc3c1OCO3)CC[N+](C)=C2 [COTARNINE]
- IC50: > 20 µM
- IC50 (read-out: pIC50 (converted)): > 20 µM

SMILES: Nc1ccc(C(=O)N2CC3CC(CN(Cc4ccccc4)C3)C2)cc1 [AMBASILIDE]
- IC50: > 20 µM
- IC50 (read-out: pIC50 (converted)): > 20 µM

SMILES: Cc1[nH]nc(C(F)(F)F)c1Cc1sc2c(c1C(=O)N1C[C@](C)(O)CO1)c(=O)n(C)c(=O)n2C(C)C [AZD3965]
- IC50: > 20 µM
- IC50 (read-out: pIC50 (converted)): > 20 µM

SMILES: CC(C(O)c1ccc(O)cc1)N1CCC(Cc2ccccc2)CC1 (centres undefined) [IFENPRODIL]
- IC50: > 20 µM
- IC50 (read-out: pIC50 (converted)): > 20 µM

SMILES: CC(C)CCCC(C)C1CCC2C3CC(O)[C@@]4(O)CC(O)CCC4(C)C3CCC12C (some centres undefined)
- IC50: > 20 µM
- IC50 (read-out: pIC50 (converted)): > 20 µM

SMILES: CNC(=O)c1cccc(NCC(=O)NCCc2ccc(OC)c(OC)c2)c1 [ECABAPIDE]
- IC50: > 20 µM
- IC50 (read-out: pIC50 (converted)): > 20 µM

SMILES: Nc1ccncc1 [DALFAMPRIDINE]
- IC50: > 20 µM
- IC50 (read-out: pIC50 (converted)): > 20 µM

SMILES: Cc1c2oc3c(C)ccc(C(=O)N[C@@H]4C(=O)N[C@@H](C(C)C)C(=O)N5CCC[C@H]5C(=O)N(C)CC(=O)N(C)[C@@H](C(C)C)C(=O)O[C@@H]4C)c3nc-2c(C(=O)N[C@@H]2C(=O)N[C@@H](C(C)C)C(=O)N3CCC[C@H]3C(=O)N(C)CC(=O)N(C)[C@@H](C(C)C)C(=O)O[C@@H]2C)c(N)c1=O (I: TVP[Sar][NMeV] / II: TVP[Sar][NMeV]; ester I:1-I:C, II:1-II:C; linker I:N-II:N via Actinocin(1to9))
- IC50: > 20 µM
- IC50 (read-out: pIC50 (converted)): > 20 µM
